Results reported in ChEMBL document CHEMBL1151791, “Derivatives of 1,4-bis(3-hydroxycarbonyl-4-hydroxyl)styrylbenzene as PTP1B inhibitors with hypoglycemic activity” (Bioorg Med Chem, 2008).
pIC50: −log10 of the molar value. Activity calls are given as the source filed them. No cut-off for these calls is given here.

Experiments:
[1] = Inhibition of PTP YOP
[2] = Inhibition of YPTP1
[3] = target: T1, Tyrosine-protein phosphatase non-receptor type 2 (Homo sapiens, UniProt P17706); assay: Inhibition of TC-PTP
T1 sequence (P17706 whole entry): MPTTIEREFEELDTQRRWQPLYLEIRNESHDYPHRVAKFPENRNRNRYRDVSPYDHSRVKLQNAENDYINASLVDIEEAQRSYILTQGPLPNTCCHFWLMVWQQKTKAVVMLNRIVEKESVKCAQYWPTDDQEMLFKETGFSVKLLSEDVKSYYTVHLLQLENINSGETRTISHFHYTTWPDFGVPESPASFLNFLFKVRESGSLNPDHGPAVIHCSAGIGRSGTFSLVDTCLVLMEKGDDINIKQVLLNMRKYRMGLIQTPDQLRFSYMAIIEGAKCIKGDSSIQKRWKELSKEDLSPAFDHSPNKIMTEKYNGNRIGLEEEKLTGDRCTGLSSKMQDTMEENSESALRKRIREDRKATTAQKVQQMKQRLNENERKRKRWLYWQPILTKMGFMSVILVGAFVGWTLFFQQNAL

[4] = target: Tyrosine-protein phosphatase non-receptor type 6 (Homo sapiens, UniProt P29350); assay: Inhibition of PTP SHP1
[5] = Inhibition of PTP LAR-D1
[6] = target: T2, Tyrosine-protein phosphatase non-receptor type 1 (Homo sapiens, UniProt P18031); assay: Inhibition of PTP1B
T2 sequence (P18031 whole entry): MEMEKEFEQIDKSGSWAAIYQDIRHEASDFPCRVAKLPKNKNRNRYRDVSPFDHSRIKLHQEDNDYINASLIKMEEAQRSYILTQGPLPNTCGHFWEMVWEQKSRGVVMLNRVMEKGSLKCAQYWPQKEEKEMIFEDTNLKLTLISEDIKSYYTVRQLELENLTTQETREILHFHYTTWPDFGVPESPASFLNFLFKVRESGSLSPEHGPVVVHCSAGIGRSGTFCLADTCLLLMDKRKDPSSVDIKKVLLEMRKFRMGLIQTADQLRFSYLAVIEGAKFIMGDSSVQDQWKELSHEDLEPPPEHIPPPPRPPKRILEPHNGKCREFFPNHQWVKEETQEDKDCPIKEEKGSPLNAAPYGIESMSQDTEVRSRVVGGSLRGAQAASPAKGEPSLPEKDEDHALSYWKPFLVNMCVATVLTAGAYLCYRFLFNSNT

Mus musculus [7] = assay: Reduction in blood glucose level in high fat diet fed C57BL/6J Jms Slc mouse at 160 mg/day/kg administered with diet measured after 27 days; format: functional, organism-based
Mus musculus [8] = assay: Toxicity in kidney of high fat diet fed C57BL/6J Jms Slc mouse at 160 mg/day/kg for 4 weeks administered with diet; format: organism-based; conditions: in vivo, po, 672 h
Mus musculus [9] = assay: Normalization of blood glucose level in high fat diet fed C57BL/6J Jms Slc mouse at 160 mg/day/kg administered with diet; format: functional, organism-based
Mus musculus [10] = assay: Toxicity in liver of high fat diet fed C57BL/6J Jms Slc mouse at 160 mg/day/kg for 4 weeks administered with diet; format: organism-based; conditions: in vivo, po, 672 h
Mus musculus [11] = assay: Toxicity in lungs of high fat diet fed mouse C57BL/6J Jms Slc at 160 mg/day/kg for 4 weeks administered with diet; format: organism-based, Lung; conditions: in vivo, po, 672 h

Tyrosine-protein phosphatase non-receptor type 6, sequence (P29350 whole entry): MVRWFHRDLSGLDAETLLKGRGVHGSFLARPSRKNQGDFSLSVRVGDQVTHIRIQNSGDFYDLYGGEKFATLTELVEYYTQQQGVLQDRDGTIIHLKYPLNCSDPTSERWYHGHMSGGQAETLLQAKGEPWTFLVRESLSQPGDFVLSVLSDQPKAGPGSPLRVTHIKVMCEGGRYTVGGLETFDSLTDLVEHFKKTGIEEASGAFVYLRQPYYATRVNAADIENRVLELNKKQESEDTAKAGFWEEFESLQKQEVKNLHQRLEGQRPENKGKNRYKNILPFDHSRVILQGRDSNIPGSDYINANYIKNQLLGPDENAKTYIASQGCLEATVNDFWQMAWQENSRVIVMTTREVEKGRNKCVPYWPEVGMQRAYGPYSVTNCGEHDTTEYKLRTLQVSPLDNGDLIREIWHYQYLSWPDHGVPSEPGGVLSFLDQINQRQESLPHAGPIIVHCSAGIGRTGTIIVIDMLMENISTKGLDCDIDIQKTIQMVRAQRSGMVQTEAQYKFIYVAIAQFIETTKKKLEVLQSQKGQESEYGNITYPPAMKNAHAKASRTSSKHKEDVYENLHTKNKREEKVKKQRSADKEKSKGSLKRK

| pIC50 [1] | pIC50 [2] | pIC50 [3] | pIC50 [4] | pIC50 [5] | pIC50 [6] | Structure (SMILES) | Activity (Mus musculus [7]) | Activity (Mus musculus [8]) | Activity (Mus musculus [9]) | Activity (Mus musculus [10]) | Activity (Mus musculus [11]) |
| --- | --- | --- | --- | --- | --- | --- | --- | --- | --- | --- | --- |
| 4.92 | 4.68 | 4.49 | 5.00 | 3.38 | 5.22 | COc1cc(/C=C/c2cc(Br)c(O)c(C(=O)O)c2)ccc1/C=C/c1cc(Br)c(O)c(C(=O)O)c1 | – | – | – | – | – |
| 4.21 | 3.94 | 3.63 | 3.90 | < 2.70 | 4.47 | O=C(O)c1cc(/C=C/c2ccccc2)ccc1O | – | – | – | – | – |
| 5.00 | 4.89 | 4.43 | 4.82 | < 3.52 | 5.52 | O=C(O)c1cc(/C=C/c2ccc(/C=C/c3cc(Br)c(O)c(C(=O)O)c3)cc2)cc(Br)c1O | Active | Non-toxic | Active | Non-toxic | Non-toxic |
| 3.76 | 3.43 | 3.25 | 3.64 | < 2.70 | 4.49 | O=C(O)c1ccc(/C=C/c2ccc(O)c(C(=O)O)c2)cc1O | – | – | – | – | – |
| 4.04 | 3.82 | 3.76 | 3.85 | < 3.00 | 4.52 | O=C(O)c1cc(/C=C/c2ccccc2)cc(Br)c1O | – | – | – | – | – |
| – | – | – | – | – | 4.19 | O=C(O)c1ccc(/C=C/c2cc(Br)c(O)c(C(=O)O)c2)cc1O | – | – | – | – | – |
| 5.30 | 5.00 | 4.96 | 5.22 | 3.79 | 5.40 | COc1cc(/C=C/c2cc(C(=O)O)c(O)c(-c3ccco3)c2)ccc1/C=C/c1cc(C(=O)O)c(O)c(-c2ccco2)c1 | – | – | – | – | – |
| – | – | – | – | – | 3.90 | O=C(O)c1cc(/C=C/c2cc(C(=O)O)c(O)c(-c3ccccc3)c2)ccc1O | – | – | – | – | – |
| – | 4.07 | – | – | < 2.70 | – | O=C(O)c1cc(-c2ccccc2)cc(Cc2cc(-c3ccccc3)cc(C(=O)O)c2O)c1O | – | – | – | – | – |
| – | – | – | – | – | 3.71 | COc1c(C(=O)O)cc(/C=C/c2ccc(C(=O)O)c(O)c2)cc1-c1ccco1 | – | – | – | – | – |
| 4.89 | 4.70 | 4.57 | 4.72 | 3.38 | 5.30 | O=C(O)c1cc(/C=C/c2ccc(/C=C/c3ccc(O)c(C(=O)O)c3)cc2)ccc1O | – | – | – | – | – |
| 4.36 | 4.23 | 3.76 | 4.11 | < 3.00 | 4.89 | O=C(O)c1cc(/C=C/c2ccccc2)cc(-c2ccccc2)c1O | – | – | – | – | – |
| 5.30 | 5.15 | 5.10 | 5.22 | < 3.70 | 6.28 | O=C(O)c1cc(/C=C/c2ccc(/C=C/c3cc(C(=O)O)c(O)c(-c4ccco4)c3)cc2)cc(-c2ccco2)c1O | – | – | – | – | – |
| – | – | – | – | – | < 3.00 | Oc1ccc(/C=C/c2cc(O)cc(O)c2)cc1 [RESVERATROL] | – | – | – | – | – |
| – | 3.63 | – | – | < 2.70 | – | O=C(O)c1cc(Cc2cc(C(=O)O)c(O)c(-c3ccccc3)c2)cc(-c2ccccc2)c1O | – | – | – | – | – |
